Laboratory results published in the Kinase Knowledgebase extract (Sharma et al. 2016).

Legend:
PIK3CG (human) [1] = molecular target: PIK3CG (human) (UniProt P48736); experiment: Enzyme Assay
PIK3CD (Human) [2] = molecular target: PIK3CD (Human) (UniProt O00329); experiment: Enzyme Assay
PIK3CA (human) [3] = molecular target: PIK3CA (human) (UniProt P42336); experiment: Enzyme Assay
PIK3CG (human) [4] = molecular target: PIK3CG (human) (UniProt P48736); experiment: Cell-Based Assay; details: u937
PIK3CD (Human) [5] = molecular target: PIK3CD (Human) (UniProt O00329); experiment: Cell-Based Assay; details: rat-1
PIK3CA (human) [6] = molecular target: PIK3CA (human) (UniProt P42336); experiment: Cell-Based Assay; details: rat-1

Sequence of PIK3CD (Human) (O00329 whole entry, looked up): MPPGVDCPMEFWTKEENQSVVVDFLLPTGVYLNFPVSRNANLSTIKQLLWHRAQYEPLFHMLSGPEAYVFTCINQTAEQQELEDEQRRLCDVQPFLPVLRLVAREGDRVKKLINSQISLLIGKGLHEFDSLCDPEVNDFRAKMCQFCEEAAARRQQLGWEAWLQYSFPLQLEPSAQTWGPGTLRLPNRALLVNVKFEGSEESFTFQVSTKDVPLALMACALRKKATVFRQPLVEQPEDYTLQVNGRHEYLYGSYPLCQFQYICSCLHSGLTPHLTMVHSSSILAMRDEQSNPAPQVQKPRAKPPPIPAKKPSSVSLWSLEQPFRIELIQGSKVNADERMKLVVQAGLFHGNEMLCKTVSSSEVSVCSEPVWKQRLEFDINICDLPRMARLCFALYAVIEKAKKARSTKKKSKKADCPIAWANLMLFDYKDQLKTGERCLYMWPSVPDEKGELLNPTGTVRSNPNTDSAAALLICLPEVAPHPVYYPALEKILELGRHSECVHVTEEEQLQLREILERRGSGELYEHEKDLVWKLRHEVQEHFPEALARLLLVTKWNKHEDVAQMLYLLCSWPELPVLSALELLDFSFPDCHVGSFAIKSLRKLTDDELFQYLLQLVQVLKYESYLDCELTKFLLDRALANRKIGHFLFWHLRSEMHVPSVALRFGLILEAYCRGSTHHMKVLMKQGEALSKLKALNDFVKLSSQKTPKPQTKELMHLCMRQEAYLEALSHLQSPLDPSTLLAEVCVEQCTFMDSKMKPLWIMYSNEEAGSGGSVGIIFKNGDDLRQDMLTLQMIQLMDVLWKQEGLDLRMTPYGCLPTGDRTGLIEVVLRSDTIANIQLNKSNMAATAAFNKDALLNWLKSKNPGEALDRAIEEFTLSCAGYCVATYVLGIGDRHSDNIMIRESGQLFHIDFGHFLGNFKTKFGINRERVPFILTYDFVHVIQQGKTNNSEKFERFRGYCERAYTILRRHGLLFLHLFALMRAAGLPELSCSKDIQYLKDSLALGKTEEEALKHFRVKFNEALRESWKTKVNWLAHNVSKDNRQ
Sequence of PIK3CA (human) (P42336 whole entry, looked up): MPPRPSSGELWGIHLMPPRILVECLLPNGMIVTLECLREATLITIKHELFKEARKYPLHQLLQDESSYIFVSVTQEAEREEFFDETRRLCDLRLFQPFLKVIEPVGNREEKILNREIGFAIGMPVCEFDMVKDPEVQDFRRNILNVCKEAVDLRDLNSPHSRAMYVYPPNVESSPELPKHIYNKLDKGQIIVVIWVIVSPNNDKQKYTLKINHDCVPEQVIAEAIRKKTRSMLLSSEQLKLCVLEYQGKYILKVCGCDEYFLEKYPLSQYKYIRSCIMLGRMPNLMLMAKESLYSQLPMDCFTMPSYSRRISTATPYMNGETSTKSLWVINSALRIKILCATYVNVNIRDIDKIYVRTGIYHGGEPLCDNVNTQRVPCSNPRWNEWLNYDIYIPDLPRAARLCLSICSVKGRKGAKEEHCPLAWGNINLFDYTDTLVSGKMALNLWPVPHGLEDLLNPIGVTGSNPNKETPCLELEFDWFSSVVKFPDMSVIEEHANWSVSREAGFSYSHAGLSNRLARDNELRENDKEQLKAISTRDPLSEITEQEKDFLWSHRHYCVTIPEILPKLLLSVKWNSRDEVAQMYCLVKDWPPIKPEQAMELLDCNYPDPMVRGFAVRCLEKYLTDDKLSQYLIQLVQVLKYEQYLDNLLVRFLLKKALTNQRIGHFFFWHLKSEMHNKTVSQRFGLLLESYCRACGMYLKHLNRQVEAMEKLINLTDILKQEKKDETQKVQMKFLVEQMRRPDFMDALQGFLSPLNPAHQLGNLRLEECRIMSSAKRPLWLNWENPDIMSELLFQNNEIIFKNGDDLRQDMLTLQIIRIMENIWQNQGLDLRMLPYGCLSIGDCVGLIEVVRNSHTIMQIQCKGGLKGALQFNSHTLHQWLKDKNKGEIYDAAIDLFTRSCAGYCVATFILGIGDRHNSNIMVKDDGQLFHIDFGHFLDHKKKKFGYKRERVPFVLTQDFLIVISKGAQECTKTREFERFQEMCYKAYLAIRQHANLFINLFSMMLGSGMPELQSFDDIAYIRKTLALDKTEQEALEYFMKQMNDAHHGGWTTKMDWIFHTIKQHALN
Sequence of PIK3CG (human) (P48736 whole entry, looked up): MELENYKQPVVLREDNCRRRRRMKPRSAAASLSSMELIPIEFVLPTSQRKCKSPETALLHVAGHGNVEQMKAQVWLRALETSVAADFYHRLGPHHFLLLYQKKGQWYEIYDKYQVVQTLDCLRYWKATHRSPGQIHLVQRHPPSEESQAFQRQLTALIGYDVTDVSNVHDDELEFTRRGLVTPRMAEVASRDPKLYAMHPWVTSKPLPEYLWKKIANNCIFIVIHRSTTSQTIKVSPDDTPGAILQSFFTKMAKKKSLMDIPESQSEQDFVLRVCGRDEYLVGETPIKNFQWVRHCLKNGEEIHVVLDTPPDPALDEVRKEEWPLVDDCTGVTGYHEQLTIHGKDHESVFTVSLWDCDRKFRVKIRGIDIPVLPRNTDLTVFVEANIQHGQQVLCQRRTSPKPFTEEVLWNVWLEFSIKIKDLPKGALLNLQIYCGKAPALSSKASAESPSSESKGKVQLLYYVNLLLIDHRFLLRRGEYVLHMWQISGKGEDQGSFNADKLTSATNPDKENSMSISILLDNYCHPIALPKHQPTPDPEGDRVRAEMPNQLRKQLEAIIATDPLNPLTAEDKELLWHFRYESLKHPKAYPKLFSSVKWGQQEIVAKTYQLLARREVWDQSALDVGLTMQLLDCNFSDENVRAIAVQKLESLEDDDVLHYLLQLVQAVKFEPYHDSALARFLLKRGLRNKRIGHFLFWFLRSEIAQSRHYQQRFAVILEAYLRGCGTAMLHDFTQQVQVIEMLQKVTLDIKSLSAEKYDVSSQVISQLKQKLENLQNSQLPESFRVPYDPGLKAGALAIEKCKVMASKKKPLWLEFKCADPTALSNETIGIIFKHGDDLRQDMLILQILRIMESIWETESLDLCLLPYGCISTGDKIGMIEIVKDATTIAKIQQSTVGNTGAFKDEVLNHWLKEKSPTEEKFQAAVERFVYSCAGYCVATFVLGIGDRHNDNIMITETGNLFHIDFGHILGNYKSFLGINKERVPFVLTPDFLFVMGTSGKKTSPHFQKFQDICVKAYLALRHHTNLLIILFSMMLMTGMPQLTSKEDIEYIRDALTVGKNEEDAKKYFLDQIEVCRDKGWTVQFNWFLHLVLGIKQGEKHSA

O=c1c2c(Cl)cccc2nc([C@@H]2C[C@H](O)CN2c2ncnc3[nH]cnc23)n1-c1ccccc1
IC50 (PIK3CG (human) [1]): 19 nM | IC50 (PIK3CD (Human) [2]): 5 nM | IC50 (PIK3CA (human) [3]): 1400 nM | IC50 (PIK3CG (human) [4]): 178 nM | IC50 (PIK3CD (Human) [5]): 21 nM | IC50 (PIK3CA (human) [6]): 4310 nM

CC1(n2c([C@@H]3CCCN3c3ncnc(N)c3C#N)nc3cccc(Cl)c3c2=O)CC1
IC50 (PIK3CG (human) [1]): 19 nM | IC50 (PIK3CD (Human) [2]): < 3 nM | IC50 (PIK3CA (human) [3]): 590 nM | IC50 (PIK3CG (human) [4]): 37 nM | IC50 (PIK3CD (Human) [5]): 5 nM | IC50 (PIK3CA (human) [6]): 4230 nM

Nc1nc(N2CCC[C@H]2c2nc3cccc(C(F)(F)F)c3c(=O)n2-c2ccccc2)c2nccn2n1
IC50 (PIK3CG (human) [1]): 93 nM | IC50 (PIK3CD (Human) [2]): 67 nM | IC50 (PIK3CA (human) [3]): 2800 nM | IC50 (PIK3CG (human) [4]): 312 nM | IC50 (PIK3CD (Human) [5]): 8040 nM | IC50 (PIK3CA (human) [6]): > 10000 nM

N#Cc1c(N)ncnc1N1CCC[C@H]1c1nc2cccc(F)c2c(=O)n1-c1ccccc1
IC50 (PIK3CG (human) [1]): 650 nM | IC50 (PIK3CD (Human) [2]): 19 nM | IC50 (PIK3CA (human) [3]): 3000 nM | IC50 (PIK3CG (human) [4]): 148 nM | IC50 (PIK3CD (Human) [5]): < 3 nM | IC50 (PIK3CA (human) [6]): > 10000 nM

Cc1nc(N)nc(N2C[C@@H](O)C[C@H]2c2nc3ccc(F)c(C4CC4)c3c(=O)n2-c2ccccc2)c1C#N
IC50 (PIK3CG (human) [1]): 11 nM | IC50 (PIK3CD (Human) [2]): 4 nM | IC50 (PIK3CA (human) [3]): 110 nM | IC50 (PIK3CG (human) [4]): 35 nM | IC50 (PIK3CD (Human) [5]): 6 nM | IC50 (PIK3CA (human) [6]): 2370 nM

Nc1nc(N2C[C@@H](O)C[C@H]2c2nc3cccc(C(F)(F)F)c3c(=O)n2-c2ccccc2)c2nc[nH]c2n1
IC50 (PIK3CG (human) [1]): 27 nM | IC50 (PIK3CD (Human) [2]): 11 nM | IC50 (PIK3CA (human) [3]): 510 nM | IC50 (PIK3CG (human) [4]): 38 nM | IC50 (PIK3CD (Human) [5]): 87 nM | IC50 (PIK3CA (human) [6]): 7540 nM

O=c1c2c(Cl)cccc2nc([C@@H]2CCCN2c2ncnc3scnc23)n1-c1ccccc1
IC50 (PIK3CG (human) [1]): 81 nM | IC50 (PIK3CD (Human) [2]): 4 nM | IC50 (PIK3CA (human) [3]): 5100 nM | IC50 (PIK3CG (human) [4]): 215 nM | IC50 (PIK3CD (Human) [5]): 51 nM | IC50 (PIK3CA (human) [6]): 4690 nM

CS(=O)(=O)N[C@H]1C[C@@H](c2nc3cccc(Cl)c3c(=O)n2-c2ccccc2)N(c2ncnc3[nH]cnc23)C1
IC50 (PIK3CG (human) [1]): 17 nM | IC50 (PIK3CD (Human) [2]): 4 nM | IC50 (PIK3CA (human) [3]): 300 nM | IC50 (PIK3CG (human) [4]): 148 nM | IC50 (PIK3CD (Human) [5]): 76 nM | IC50 (PIK3CA (human) [6]): > 10000 nM

Cc1nc(N)nc(N2CCC[C@H]2c2nc3cccc(C(F)(F)F)c3c(=O)n2-c2cncc(F)c2)c1C#N
IC50 (PIK3CG (human) [1]): 240 nM | IC50 (PIK3CD (Human) [2]): 50 nM | IC50 (PIK3CA (human) [3]): 4500 nM | IC50 (PIK3CG (human) [4]): 92 nM | IC50 (PIK3CD (Human) [5]): 56 nM | IC50 (PIK3CA (human) [6]): 8740 nM

Cc1nc(N)nc(N2C[C@@H](O)C[C@H]2c2nc3cccc(Cl)c3c(=O)n2-c2cccnc2)c1C#N
IC50 (PIK3CG (human) [1]): 86 nM | IC50 (PIK3CD (Human) [2]): 12 nM | IC50 (PIK3CA (human) [3]): 1000 nM | IC50 (PIK3CG (human) [4]): 24 nM | IC50 (PIK3CD (Human) [5]): 9 nM | IC50 (PIK3CA (human) [6]): 6240 nM

Cc1nc(N)nc(N2C[C@@H](O)C[C@H]2c2nc3cccc(F)c3c(=O)n2-c2ccccc2)c1C#N
IC50 (PIK3CG (human) [1]): 90 nM | IC50 (PIK3CD (Human) [2]): 18 nM | IC50 (PIK3CA (human) [3]): 1300 nM | IC50 (PIK3CG (human) [4]): 114 nM | IC50 (PIK3CD (Human) [5]): 24 nM | IC50 (PIK3CA (human) [6]): 6600 nM

Nc1nc(N2CCC[C@H]2c2nc3cccc(C(F)(F)F)c3c(=O)n2-c2cncc(F)c2)c2nc[nH]c2n1
IC50 (PIK3CG (human) [1]): 320 nM | IC50 (PIK3CD (Human) [2]): 160 nM | IC50 (PIK3CA (human) [3]): > 10000 nM | IC50 (PIK3CG (human) [4]): 324 nM | IC50 (PIK3CD (Human) [5]): 164 nM | IC50 (PIK3CA (human) [6]): > 10000 nM

Cc1nc(N)nc(N2C[C@@H](F)C[C@H]2c2nc3cccc(C(F)(F)F)c3c(=O)n2-c2ccccc2)c1C#N
IC50 (PIK3CG (human) [1]): 47 nM | IC50 (PIK3CD (Human) [2]): 10 nM | IC50 (PIK3CA (human) [3]): 590 nM | IC50 (PIK3CG (human) [4]): 22 nM | IC50 (PIK3CD (Human) [5]): 12 nM | IC50 (PIK3CA (human) [6]): 2060 nM

N#Cc1c(N)ncnc1N1CCC[C@H]1c1nc2cccc(C(F)(F)F)c2c(=O)n1-c1ccccc1
IC50 (PIK3CG (human) [1]): 140 nM | IC50 (PIK3CD (Human) [2]): 12 nM | IC50 (PIK3CA (human) [3]): 2800 nM | IC50 (PIK3CG (human) [4]): 261 nM | IC50 (PIK3CD (Human) [5]): 62 nM | IC50 (PIK3CA (human) [6]): > 10000 nM

Nc1nc(N2CCC[C@H]2c2nc3cccc(Cl)c3c(=O)n2N2CCOCC2)c2nc[nH]c2n1
IC50 (PIK3CG (human) [1]): 63 nM | IC50 (PIK3CD (Human) [2]): 42 nM | IC50 (PIK3CA (human) [3]): 4600 nM | IC50 (PIK3CG (human) [4]): 1820 nM | IC50 (PIK3CD (Human) [5]): 65 nM | IC50 (PIK3CA (human) [6]): > 10000 nM
